Assay [1] addresses T1, human JAK1 (a.a. 837-1142) (Homo sapiens, UniProt P23458).
T1 construct: The catalytic domains of human JAK1 (a.a. 837-1142); His tag (N); made in house; host or cells: insect cells (baculovirus)
Nature of the assay: In vitro JAK kinase assay (HTRF, phosphorylation of biotinylated peptide), JAK1. In kind it is biochemical. The conditions noted are these: 1 mM ATP, read-out: JAK1 IC50 (nM) @ 1 mM ATP. Put shortly:
(§1)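 IC50 from HTRF detection (Eu-Py20 antibody, SA-APC, 40 min) after EDTA quench. Reactions ran 1 h at room temperature with 500 nM biotinylated peptide in Tris pH 7.8 buffer with NaCl, DTT, BSA; ATP 90 μM for JAK1, 30 μM for JAK2 (Km), or 1 mM. Enzymes: His-tagged catalytic domains from insect cells.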
A general note: Time-resolved FRET reads energy transfer from a long-lived donor to a nearby acceptor.

A further assay has as its target T2, Jak2 (a.a. 828-1132) (Homo sapiens, UniProt O60674).
T2 construct: Jak2 (a.a. 828-1132); His tag (N); made in house; host or cells: insect cells (baculovirus)
Nature of the assay: In vitro JAK kinase assay (HTRF, phosphorylation of biotinylated peptide), JAK2. In kind it is biochemical. As to conditions: 1 mM ATP, read-out: JAK2 IC50 (nM) @ 1 mM ATP. Put shortly:
as §1

Like-named read-outs stand apart in the source and are kept apart here.

As a reminder, the IC50 is the concentration needed to halve the response being measured.

T2 sequence (O60674 828-1132): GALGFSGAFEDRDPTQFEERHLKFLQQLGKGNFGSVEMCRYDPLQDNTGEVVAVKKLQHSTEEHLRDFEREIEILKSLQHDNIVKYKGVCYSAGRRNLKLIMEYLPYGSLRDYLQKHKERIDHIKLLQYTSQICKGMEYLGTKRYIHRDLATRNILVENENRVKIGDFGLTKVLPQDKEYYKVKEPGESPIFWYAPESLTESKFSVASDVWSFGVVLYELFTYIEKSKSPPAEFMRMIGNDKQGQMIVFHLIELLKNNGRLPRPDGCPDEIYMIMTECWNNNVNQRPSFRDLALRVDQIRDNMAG
T1 sequence (P23458 849-1154): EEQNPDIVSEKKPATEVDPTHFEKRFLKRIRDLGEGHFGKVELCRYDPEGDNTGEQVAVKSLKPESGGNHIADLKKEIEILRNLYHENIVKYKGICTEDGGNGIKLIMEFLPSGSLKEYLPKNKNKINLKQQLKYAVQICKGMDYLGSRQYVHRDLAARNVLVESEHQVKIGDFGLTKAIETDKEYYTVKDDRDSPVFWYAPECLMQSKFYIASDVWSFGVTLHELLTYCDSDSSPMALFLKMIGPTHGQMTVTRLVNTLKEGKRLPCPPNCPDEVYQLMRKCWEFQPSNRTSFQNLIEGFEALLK

Consider `N#CCC(CN1CCN(C(=O)c2ccc(C#N)cc2)CC1)n1ccc(-c2ncnc3[nH]ccc23)c1` (centres unmarked) [Example 88, 4-(4-(2-(3-(7H-pyrrolo[2,3-d]pyrimidin-4-yl)-1H-pyrrol-1-yl)-3-cyanopropyl)piperazine-1-carbonyl)benzonitrile], for which the figures for the IC50 (in assay [1] (Examples 12-91); on Jak2 (a.a. 828-1132) (Examples 12-91)) were 10 to 50 nM and above 100 nM, respectively.

`N#CCC(CN1CCN(C(=O)c2ncc(C(F)(F)F)cc2F)CC1)n1ccc(-c2ncnc3[nH]ccc23)c1` (centres unmarked) [Example 89, 3-(3-(7H-pyrrolo[2,3-d]pyrimidin-4-yl)-1H-pyrrol-1-yl)-4-(4-(3-fluoro-5-(trifluoromethyl)picolinoyl)piperazin-1-yl)butanenitrile]: the IC50 in assay [1] (Examples 12-91) was 10 to 50 nM; on Jak2 (a.a. 828-1132) (Examples 12-91), above 100 nM.

Take `N#CCC(CN1CCN(C(=O)c2ccc(F)cc2F)CC1)n1ccc(-c2ncnc3[nH]ccc23)c1` (centres unmarked) [Example 90, 3-(3-(7H-pyrrolo[2,3-d]pyrimidin-4-yl)-1H-pyrrol-1-yl)-4-(4-(2,4-difluorobenzoyl)piperazin-1-yl)butanenitrile]: the IC50 (in assay [1] (Examples 12-91); at Jak2 (a.a. 828-1132) (Examples 12-91)) was below 10 nM in each case.

Consider `N#CCC(CN1CCN(C(=O)c2ccc(C(F)F)cc2F)CC1)n1ccc(-c2ncnc3[nH]ccc23)c1` (centres unmarked) [Example 91, 3-(3-(7H-pyrrolo[2,3-d]pyrimidin-4-yl)-1H-pyrrol-1-yl)-4-(4-(4-(difluoromethyl)-2-fluorobenzoyl)piperazin-1-yl)butanenitrile], for which the values for the IC50 (in assay [1] (Examples 12-91); at Jak2 (a.a. 828-1132) (Examples 12-91)) were below 10 nM and 10 to 50 nM, respectively.

For the compound `Cc1cc(S(=O)(=O)N2CCN(CC(C)n3cc(-c4ncnc5[nH]ccc45)cn3)CC2)c(C(F)(F)F)o1` (centres unmarked) [Example 92, 4-{1-[1-methyl-2-(4-{[5-methyl-2-(trifluoromethyl)-3-furyl]sulfonyl}piperazin-1-yl)ethyl]-1H-pyrazol-4-yl}-7H-pyrrolo[2,3-d]pyrimidine], the IC50 in assay [1] (Examples 92-162) is 20 to 50 nM; at Jak2 (a.a. 828-1132) (Examples 92-162), above 100 nM.

Consider `CC(CN1CCN(S(=O)(=O)c2ccc(Cl)s2)CC1)n1cc(-c2ncnc3[nH]ccc23)cn1` (centres unmarked) [Example 93, 4-[1-(2-{4-[(5-chloro-2-thienyl)sulfonyl]piperazin-1-yl}-1-methylethyl)-1H-pyrazol-4-yl]-7H-pyrrolo[2,3-d]pyrimidine], for which the figures for the concentration for half-maximal inhibition (IC50) (in assay [1] (Examples 92-162); at Jak2 (a.a. 828-1132) (Examples 92-162)) were 20 to 50 nM and above 100 nM, respectively.

Take `CC(CN1CCN(S(=O)(=O)c2ccccc2C#N)CC1)n1cc(-c2ncnc3[nH]ccc23)cn1` (centres unmarked) [Example 94, 2-[(4-{2-[4-(7H-pyrrolo[2,3-d]pyrimidin-4-yl)-1H-pyrazol-1-yl]propyl}piperazin-1-yl)sulfonyl]benzonitrile]: the IC50 was 20 to 50 nM in assay [1] (Examples 92-162) and above 100 nM on Jak2 (a.a. 828-1132) (Examples 92-162).

In the case of `CC(CN1CCN(C(=O)c2ccc(F)cc2F)CC1)n1cc(-c2ncnc3[nH]ccc23)cn1` (centres unmarked) [Example 95, 4-(1-{2-[4-(2,4-difluorobenzoyl)piperazin-1-yl]-1-methylethyl}-1H-pyrazol-4-yl)-7H-pyrrolo[2,3-d]pyrimidine bis(trifluoroacetate)], the IC50 in assay [1] (Examples 92-162) is 20 to 50 nM; on Jak2 (a.a. 828-1132) (Examples 92-162), above 100 nM.

`CC(CN1CCN(S(=O)(=O)c2cccc(F)c2)CC1)n1cc(-c2ncnc3[nH]ccc23)cn1` (centres unmarked) [Example 96, 4-[1-(2-{4-[(3-fluorophenyl)sulfonyl]piperazin-1-yl}-1-methylethyl)-1H-pyrazol-4-yl]-7H-pyrrolo[2,3-d]pyrimidine bis(trifluoroacetate)]: the IC50 in assay [1] (Examples 92-162) is 20 to 50 nM; at Jak2 (a.a. 828-1132) (Examples 92-162), above 100 nM.

Consider `N#CCC(CN1CCCN(C(=O)c2ccc(O)cc2F)CC1)n1cc(-c2ncnc3[nH]ccc23)cn1` (centres unmarked) [Example 97, 4-[4-(2-fluoro-4-hydroxybenzoyl)-1,4-diazepan-1-yl]-3-[4-(7H-pyrrolo[2,3-d]pyrimidin-4-yl)-1H-pyrazol-1-yl]butanenitrile bis(trifluoroacetate)], for which the IC50 in assay [1] (Examples 92-162) is 20 to 50 nM; on Jak2 (a.a. 828-1132) (Examples 92-162) it was above 100 nM.

These data come from patent publication US9249145B2, “Heterocyclic derivatives of pyrazol-4-yl-pyrrolo[2,3-d]pyrimidines as janus kinase inhibitors” (Incyte Holdings Corporation, priority 2009, dated 2016).
